{"source": "patent US20190070140A1", "about": "“COMPOSITION COMPRISING PROTECTIN DX AS ACTIVE INGREDIENT FOR PREVENTING OR TREATING HYPERLIPIDEMIA OR FATTY LIVER DISEASE” (Solvit P&F, priority 2017, published 2019)", "key": {"HepG2 cells": {"test_system": "HepG2 cells", "assay": "Palmitate-induced TG accumulation in HepG2 cells, Oil-Red-O staining with isopropyl alcohol extraction", "type": "cell-based, Human", "description": "Human liver cells, that is, HepG2 cells (ATCC, Manassas, Va., USA) were cultured in high-glucose Dulbecco's modified eagle medium (DMEM, Invitrogen, Carlsbad, Calif., USA), which includes 10% fetal bovine serum (FBS, Invitrogen), 100 units/mL of penicillin and 100 μg/ml of streptomycin. The cells were incubated at 37° C. under a condition of 5% CO2.\nMycoplasma was not detected in HepG2 cells. PDX (Cayman Chemical, Ann Arbor, Mich., USA) was dissolved in ethanol. Sodium palmitate (Sigma, St. Louis, Mo., USA) was mixed with 2% BSA (fatty acid free level; Sigma) in DMEM. […] In all experiments, the cells were treated with palmitate-BSA and PDX for 24 hours, while 2% BSA-ethanol was used as a control group.\nHepG2 cells and a cut section of the liver in a mouse were stained by Oil-Red-O staining method, in order to determine cellular triglyceride such as triglyceride, that is, TG. The liver cells were fixed with 10% formalin for 40 minutes, and then stained with Oil-Red-O solution (Sigma) at 37° C. for 1 hour. A content of Oil-Red-O stained TG was quantified by adding isopropanol to each of the samples. The mixture was gently stirred at 25° C. for 8 minutes. Lastly, 100 μl of isopropanol-extracted sample was analyzed by a spectrophotometer at 510 nm.\nIn the presence of 200 μM palmitate and PDX (0 to 2 μm), HepG2 cells were subjected to Oil-Red-O staining for 24 hours, while TG accumulation was quantified by isopropyl alcohol extraction.\nFurther, the present inventors have executed Oil-Red-O staining with respect to palmitate-treated HepG2 cells for 24 hours. TG accumulation was quantified by extraction using isopropyl alcohol."}, "IRE-1, eIF2α and CHOP [1]": {"test_system": "IRE-1, eIF2α and CHOP", "assay": "Western-blot assay of phosphorylation and expression of ER stress markers in palmitate-treated HepG2 cells", "type": "cell-based, Human", "settings": "for expression of ER stress markers IRE-1, eIF2α and CHOP: FIG. 2A", "description": "Human liver cells, that is, HepG2 cells (ATCC, Manassas, Va., USA) were cultured in high-glucose Dulbecco's modified eagle medium (DMEM, Invitrogen, Carlsbad, Calif., USA), which includes 10% fetal bovine serum (FBS, Invitrogen), 100 units/mL of penicillin and 100 μg/ml of streptomycin. The cells were incubated at 37° C. under a condition of 5% CO2. Mycoplasma was not detected in HepG2 cells. PDX (Cayman Chemical, Ann Arbor, Mich., USA) was dissolved in ethanol. Sodium palmitate (Sigma, St. Louis, Mo., USA) was mixed with 2% BSA (fatty acid free level; Sigma) in DMEM. […] In all experiments, the cells were treated with palmitate-BSA and PDX for 24 hours, while 2% BSA-ethanol was used as a control group. After collecting HepG2 cells, protein was extracted from the cells with a buffer (PRO-PREF; Intron Biotechnology, Seoul, Korea) at 4° C. for 1 hour. A protein sample (35 μg) was applied to 12% SDS-PAGE, transferred to a nitrocellulose film (Amersham Bioscience, Westborough, Mass., USA), detected with a primary antibody, followed by probing with a secondary antibody and another secondary antibody conjugated with horseradish […] (Santa Cruz Biotechnology). The sample was detected by ECL kit. Under 70% comfluency, 0 to 20 nmol/L […] (si)RNA oligonucleotide to ORP150 purchased from Santa Cruz Biotechnology was transfected to inhibit gene expression. Scramble siRNA was used as a control group. 2 or 4 μg of pCMV3-ORP150 (Sino Biological, Beijing, China) was transiently transfected, leading to over-expression of ORP150. pCMV3 empty-vector was used as a control group. According to instruction of the manufacturer, transfection was executed using lipofectamine 2000 (Invitrogen)."}, "IRE-1, eIF2α and CHOP [2]": {"test_system": "IRE-1, eIF2α and CHOP", "assay": "Western-blot assay of ER stress markers in livers of HFD mice", "type": "in vivo, mouse", "settings": "PDX i.p. 1 μg/mice/day for 8 weeks, FIG. 5C", "description": "The present study has received the approval of the Institutional Animal Review Committee (Institutional Animal Care and Use Committee in Korea University, Seoul, Korea). The animal experiment was conducted according to the Guide for Care and Use of Laboratory Animals (NH publication, 8th Ed., 2011). A control group and a group of male C57BL/6J(B6) mice at 8 weeks of age were subjected to a normal diet (ND, Brogaarden, Gentofte, Denmark) and a high fat diet (HFD, Research Diets, New Brunswick, N.J., USA) for 8 weeks, respectively. The HFD (high fat diet) group was provided with intra-peritoneal injection of PDX for 8 weeks (1 μg/mice/day). An ethanol injection group was used as a control group. […] A protein sample (35 μg) was applied to 12% SDS-PAGE, transferred to a nitrocellulose film (Amersham Bioscience, Westborough, Mass., USA), detected with a primary antibody, followed by probing with a secondary antibody and another secondary antibody conjugated with horseradish […] (Santa Cruz Biotechnology). The sample was detected by ECL kit. The present inventors have assessed PDX effects upon lipid accumulation in a mouse. For this purpose, a liver cut section from a mouse was subjected to histological assay and western-blot assay through H&E staining and Oil-Red-O staining, while TG accumulation was measured using a TG analysis kit."}, "adiponectin": {"test_system": "adiponectin", "assay": "Adiponectin level in blood serum of HFD mice", "type": "in vivo, mouse", "settings": "PDX i.p. 1 μg/mice/day for 8 weeks, FIG. 5E", "description": "The present study has received the approval of the Institutional Animal Review Committee (Institutional Animal Care and Use Committee in Korea University, Seoul, Korea). The animal experiment was conducted according to the Guide for Care and Use of Laboratory Animals (NH publication, 8th Ed., 2011). A control group and a group of male C57BL/6J(B6) mice at 8 weeks of age were subjected to a normal diet (ND, Brogaarden, Gentofte, Denmark) and a high fat diet (HFD, Research Diets, New Brunswick, N.J., USA) for 8 weeks, respectively. The HFD (high fat diet) group was provided with intra-peritoneal injection of PDX for 8 weeks (1 μg/mice/day). An ethanol injection group was used as a control group."}}}
{"smiles": "CC/C=C\\C[C@H](O)/C=C/C=C\\C=C\\[C@@H](O)C/C=C\\C/C=C\\CCC(=O)O", "note": "[PDX, 10S,17S-dihydroxy-docosa-4Z,7Z,11E,13Z,15E,19Z-hexaeonic acid]", "values": [{"measurement": "palmitate-induced TG accumulation", "setting": "HepG2 cells; 200 μM palmitate, PDX 0 to 2 μm, 24 hours, FIG. 1A", "result": "inhibited"}, {"measurement": "TG accumulation inhibitory effects of PDX", "setting": "HepG2 cells; palmitate, silencing ORP150, FIG. 2B", "result": "reduced"}, {"measurement": "palmitate-induced TG accumulation", "setting": "HepG2 cells; scramble siRNA, PDX administration, FIG. 2B", "result": "inhibited"}, {"measurement": "expression of ER stress markers IRE-1, eIF2α and CHOP", "setting": "IRE-1, eIF2α and CHOP [1]; palmitate + PDX + siORP150 (ORP150 silencing)", "result": "increased again"}, {"measurement": "phosphorylation and expression of ER stress markers IRE-1, eIF2α and CHOP", "setting": "IRE-1, eIF2α and CHOP [1]; palmitate-induced, 24 hours, FIG. 1C", "result": "significantly decreased depending upon a dose of PDX"}, {"measurement": "expression of ER stress markers IRE-1, eIF2α and CHOP", "setting": "IRE-1, eIF2α and CHOP [1]; scramble siRNA + palmitate + PDX", "result": "reduced"}, {"measurement": "liver ER stress markers IRE-1, eIF2α and CHOP", "setting": "IRE-1, eIF2α and CHOP [2]", "result": "inhibited"}, {"measurement": "level of adiponectin in blood serum", "setting": "adiponectin", "result": "increased"}]}
